Experimental data taken from paper PMC9423820, “Melittin-derived peptides exhibit variations in cytotoxicity and antioxidant, anti-inflammatory and allergenic activities” (Animal Cells and Systems, 2022).
Where no end group is shown, it is not given here.

Key:
[1] = tested on: IκBα phosphorylation in RAW 264.7 cells; experiment: Immunoblot of phospho-IκBα in LPS-stimulated RAW 264.7 cells; format: cell-based, murine; settings: RAW 264.7, 24 h pretreatment (melittin 1.25 μM; P1 2.5 μM; P2 indicated concentrations), LPS 1 μg/mL 1 h, n = 3
Method: RAW 264.7 cells (1 × 10^5 cells/well) were seeded in a 6-well plate and incubated for 24 h. Medium containing melittin or melittin-derived peptides was added, and the plates were incubated for 24 h. Thereafter, LPS was added to the medium at a final concentration of 1 μg/mL, followed by incubation for 1 h. To prepare protein samples, the medium was completely removed by aspiration, and the cells were washed with cold PBS and then lysed with lysis buffer [10 mM Tris-HCl (pH 7.5), 100 mM NaCl, 1 mM EDTA, 1 mM EGTA, 1% Triton X-100, 10% glycerol, and 0.1% SDS] with a protease inhibitor cocktail (Roche, Switzerland). The protein samples were sonicated and centrifuged at 16,000 × g for 10 min. The supernatant was then transferred to a new tube and used for immunoblot analysis. The protein samples were separated using sodium dodecyl sulfate-polyacrylamide gel electrophoresis (SDS-PAGE), and the separated proteins were transferred onto a nitrocellulose membrane (0.45 μm, Merck Millipore, USA). […] The unbound antibodies were washed with PBS-T, and the antibodies bound to the nitrocellulose membrane were detected using the SuperSignal system (SuperSignal; Thermo Fisher Scientific), using horseradish peroxidase-conjugated secondary antibodies (Abcam, Cambridge, UK).

[2] = tested on: RBL-2H3 cells; experiment: β-Hexosaminidase release (degranulation) assay; format: cell-based, rat; parameters: key: +, active; -, inactive; settings: Figure 4B summary
Method: The β-hexosaminidase release assay was performed as previously described. RBL-2H3 cells (5 × 10^4 cells/well) were seeded in 96-well plates and incubated for 24 h. The medium was removed, and the cells were washed twice with siraganian buffer (119 mM NaCl, 5 mM KCl, 5.6 mM glucose, 0.4 mM MgCl2, 25 mM PIPES, 40 mM NaOH, 1 mM CaCl2, and 0.1% BSA, pH 7.2), and then incubated in 100 μL siraganian buffer supplemented with compound 48/80 (Sigma-Aldrich, St. Louis, MO, USA), melittin, or melittin-derived peptides for 1 h. Compound 48/80 was used as a positive control. The reaction was terminated by incubation at 4 °C for 10 min. The fluorescence of β-hexosaminidase in the supernatant was measured with a β-hexosaminidase activity assay kit (Cell Biolabs, USA) using a 2104 EnVision multilabel plate reader (PerkinElmer, USA) at […]. The relative fluorescence units of β-hexosaminidase release were calculated by subtracting the fluorescence intensity of the control group from that of the experimental group.

[3] = tested on: TNF-α, IL-6, IL-1β mRNA expression in RAW 264.7 cells; experiment: qRT-PCR of inflammatory cytokine mRNA in LPS-stimulated RAW 264.7 cells; format: cell-based, murine; parameters: key to Anti-inflammatory activity (summary): +, active; -, inactive; settings: for Anti-inflammatory activity (summary): Figure 4B summary, LPS-stimulated RAW 264.7 cells
Method: RAW 264.7 cells (1 × 10^5 cells/well) were seeded in 6-well plates and incubated for 24 h (Ahmed et al. [2020]). Next, culture medium with melittin or melittin-derived peptides was added to the plates, and they were incubated for 24 h. Thereafter, lipopolysaccharide (LPS) was added to the medium at a final concentration of 1 μg/mL, followed by incubation for 6 h. The medium was completely removed, the cells were washed with cold PBS and lysed with 1 mL of RiboEx (GeneAll, Korea), and RNA was extracted using a Hybrid-R RNA purification kit (GeneAll). To synthesize cDNA, RNA was quantified using a Nabi UV/Vis nanospectrophotometer (MicroDigital, Korea), and 1 μL of random hexamer (100 pmol/μL) and 1 μL of dNTP mix (10 mM) were added to each RNA sample (1 μg). The total volume was adjusted to 10 μL using DEPC-treated water. The mixture was subjected to heating at 65 °C for 5 min and immediately cooled on ice. Thereafter, 1 μL M-MLV reverse transcriptase (Promega), 4 μL 5X M-MLV RT reaction buffer (Promega), 1 μL RNase inhibitor (Enzynomics, Korea), and 4 μL DEPC-treated water were added to each RNA sample, and the mixture was incubated at 25 °C for 10 min and then at 50 °C for 1 h.
The mRNA expression levels of inflammatory cytokines were analyzed using qRT-PCR. The reaction mixture contained 10 μL of 2X Prime Q-master Mix (GENET BIO, Korea), 1.5 μL of 10 pmol/μL forward primer, 1.5 μL of 10 pmol/μL reverse primer, 5 μL of DEPC-treated water, and 2 μL of cDNA (1/10 dilution); qRT-PCR was performed using AriaMx (Agilent, USA) as per the following conditions: 40 cycles of denaturation at 95 °C for 20 s, annealing at 58 °C for 20 s, and elongation at 72 °C for 20 s. The primers used for the qRT-PCR are listed in Supplementary 1.

[4] = tested on: BEAS-2B cells; experiment: MTS cell viability assay (CellTiter 96 Aqueous One), BEAS-2B; format: cell-based, human; parameters: key to Cytotoxicity (summary): +, active; -, inactive; settings: 24 h; for Cytotoxicity (summary): Figure 4B summary, MTS assay, BEAS-2B and HeLa cells
Excerpt: Human pulmonary bronchial epithelial BEAS-2B, human epithelial cervix carcinoma HeLa, murine macrophage RAW 264.7, and rat basophilic leukemia mast RBL-2H3 cells were purchased from American Type Culture Collection (ATCC, VA, USA). BEAS-2B cells were maintained in bronchial epithelial basal medium (BEBM; Lonza, Basel, Switzerland). HeLa, RAW 264.7, and RBL-2H3 cells were maintained in DMEM supplemented with 10% heat-inactivated fetal bovine serum (Welgene, Gyeongsangbuk-do, Korea) and 1% penicillin and streptomycin (Welgene) at 37 °C in a humidified atmosphere of 5% CO2. Melittin and its derived peptides (Figure 1A) were synthesized by Peptron, Inc. (Daejeon, Korea).
The effect of melittin and melittin-derived peptides on cell viability was evaluated using the CellTiter 96^R Aqueous One Solution Cell Proliferation Assay (Promega, Madison, WI, USA), according to the manufacturer’s instructions (Cambronero-Urena et al. [2021]). BEAS-2B and HeLa cells were seeded (3,000 cells/well) in 96-well plates and incubated for 24 h. Culture medium containing melittin or melittin-derived peptides was added to the plates, and they were incubated for 24 h. Thereafter, 20 μL of MTS reagent was added, and absorbance was measured at 490 nm using a microplate reader (Molecular Devices EMax Plus). The formula used to calculate the cell viability is as follows: Cell viability (%)={(A Sample−A [Blank]) / (A [Control])−A [Blank])}×100, Where A is the absorbance for a given wavelength.

[5] = ABTS radical scavenging assay; format: biochemical; parameters: key to Anti-oxidant activity (summary): +, active; -, inactive; settings: for antioxidant activity (ABTS radical scavenging), in words: 4 min reaction, absorbance 650 nm, resveratrol as positive control, n = 3; for Anti-oxidant activity (summary): Figure 4B summary, ABTS radical scavenging
Method: The antioxidant activities of melittin and melittin-derived peptides were measured using the 2,2'-azino-bis(3-ethylbenzothiazoline-6-sulfonic acid) (ABTS) radical scavenging assay. ABTS^+ radical solution was prepared by mixing equal volumes of 7 mM ABTS solution with 2.4 mM persulfate solution and allowing them to react in the dark at 25 °C for 24 h. Before this reaction, the ABTS^+ radical solution was diluted with distilled water to obtain an absorbance of 0.7 ± 0.01 units at 650 nm. Melittin and melittin-derived peptides (20 µL each) at various concentrations were then reacted with 80 µL of ABTS^+ radical solution for 4 min in the dark, and absorbance was measured at 650 nm using an EMax Plus microplate reader (Molecular Devices, San Jose, CA, USA). ABTS^+ radical scavenging activity was calculated using the following formula: ABTS+ radical scavenging activity (%) = [1 − (Abssample − Absblank of sample) / Abscontrol] × 100, where Abscontrol is the absorbance of ABTS^+ radical solution diluted in water, Abssample is the absorbance of ABTS^+ radical solution mixed with melittin or melittin-derived peptides, and Absblank of sample is the absorbance of water mixed with melittin or melittin-derived peptides. All experiments were performed in triplicates (n = 3).

Row | Compound | effect on LPS-induced IκBα phosphorylation [1] | Allergenic activity (summary) [2] | Anti-inflammatory activity (summary) [3] | inhibition of mRNA expression of inflammatory cytokines (TNF-α, IL-6, IL-1β) ([3]; RAW 264.7, 1.25 μM, 24 h pretreatment, LPS 1 μg/mL 6 h, qRT-PCR, n = 3) | cellular activity (cell viability) ([4]; BEAS-2B, 2.5 μM, MTS, n = 3) [%] | concentration showing strong cytotoxicity ([4]; BEAS-2B, MTS) [µM] | Cytotoxicity (summary) [4] | antioxidant activity (ABTS radical scavenging), in words [5] | Anti-oxidant activity (summary) [5]
1 | CC[C@H](C)[C@H](NC(=O)CN)C(=O)NCC(=O)N[C@@H](C)C(=O)N[C@H](C(=O)N[C@@H](CC(C)C)C(=O)N[C@@H](CCCCN)C(=O)N[C@H](C(=O)N[C@@H](CC(C)C)C(=O)N[C@H](C(=O)N[C@H](C(=O)NCC(=O)N[C@@H](CC(C)C)C(=O)N1CCC[C@H]1C(=O)N[C@@H](C)C(=O)N[C@@H](CC(C)C)C(=O)N[C@H](C(=O)N[C@@H](CO)C(=O)N[C@@H](Cc1c[nH]c2ccccc12)C(=O)N[C@H](C(=O)N[C@@H](CCCCN)C(=O)N[C@@H](CCCNC(=N)N)C(=O)N[C@@H](CCCCN)C(=O)N[C@@H](CCCNC(=N)N)C(=O)N[C@@H](CCC(N)=O)C(=O)N[C@@H](CCC(N)=O)C(N)=O)[C@@H](C)CC)[C@@H](C)CC)[C@@H](C)O)[C@@H](C)O)C(C)C)C(C)C [Melittin] | decreased slightly | + | + | significant inhibition | 75 | ≥ 5 | + | comparable to that of resveratrol | +
2 | P4: melittin-derived peptide consisting of nine amino acids of the N-terminal of melittin (GIGAVLKVL; Melittin; UniProt P01501 44-52, looked up, fragment) |  |  | - |  |  |  | - | did not show antioxidant activity | -
3 | P3: melittin-derived peptide composed of C-terminal 11 amino acids (LISWIKRKRQQ; ends and bridges not checked; UniProt P01501 59-69, looked up, fragment) |  |  | - |  |  |  | - |  | +
